Patent US8912120B2, “Herbicidal compositions comprising 4-amino-3-chloro-5-fluoro-6-(4-chloro-2-fluoro-3-methoxyphenyl) pyridine-2-carboxylic acid or a derivative thereof and synthetic auxin herbicides” (Dow AgroSciences, LLC., priority 2012, dated 2014)
Structures can show the parent of a compound that is named as a salt.

Assays:
CYPRO = assay: Example II: in-water applied herbicidal mixtures, weed control in transplanted paddy rice (greenhouse), CYPRO; format: in vivo, Cyperus rotundus (purple nutsedge); conditions: for Visual Weed Control (%) - 20 DAA CYPRO Obs / Visual Weed Control (%) - 22 DAA CYPRO Obs: in-water application; for Visual Weed Control (%) Obs: 20 DAA
Experimental: (§1) The prepared mud was dispensed in 365 mL aliquots into 16-ounce (oz.) non-perforated plastic pots with a surface area of 86.59 square centimeters (cm^2) leaving a headspace of 3 centimeters (cm) in each pot Mud was allowed to dry overnight prior to planting or transplanting. Rice seeds were planted in Sun Gro MetroMix® 306 planting mixture, which typically has a pH of 6.0 to 6.8 and an organic matter content of about 30 percent, in plastic plug trays. Seedlings at the second or third leaf stage of growth were transplanted into 840 mL of mud contained in 32-oz. non-perforated plastic pots with a surface area of 86.59 cm^2 4 days prior to herbicide application. […] Nutrients were added as Osmocote® (19:6:12, N:P:K^+ minor nutrients) at 2 g per 16-oz. pot and 4 g per 32-oz. pot.
(§2) Applications were made by injecting with a pipetter appropriate amounts of the application solutions, individually and sequentially, into the aqueous layer of the paddy. Control plants were treated in the same manner with the solvent blank. Applications were made so that all treated plant material received the same concentrations of acetone and crop oil concentrate.

SCPMA = assay: Example II: in-water applied herbicidal mixtures, transplanted paddy rice, SCPMA; format: in vivo; conditions: for Visual Weed Control (%) Obs: 20 DAA
Experimental: as §1, §2

CASOB = assay: Example V: postemergence herbicidal activity of mixtures in forage crops (greenhouse), CASOB; format: in vivo, Cassia obtusifolia (sicklepod); conditions: alone, 50 gae/ha, foliar, approximately 21 days
Experimental: (§3) Seeds or root cuttings of the desired test plant species were planted in Sun Gro MetroMix® 306 planting mixture, which typically has a pH of 6.0 to 6.8 and an organic matter content of about 30 percent, in plastic pots with a surface area of 126.6 square centimeters (cm^2). […] The plants were grown for 14-60 days in a greenhouse with an approximate 14 hour photoperiod which was maintained at approximately 28° C. during the day and 24° C. during the night.
(§4) Spray solutions of the second herbicide or experimental compound mixtures were prepared by adding the stock solutions to the appropriate amount of dilution solution to form 12 mL spray solution with active ingredients in two-way combinations.

ECHOR = assay: Example II: in-water applied herbicidal mixtures, transplanted paddy rice, ECHOR; format: in vivo, Echinochloa oryzoides (early watergrass)
Experimental: as §1, §2

ECHCG [1] = assay: Example II: in-water applied herbicidal mixtures, transplanted paddy rice, ECHCG; format: in vivo, Echinochloa crus-galli (barnyardgrass); conditions: for Visual Weed Control (%) - 22 DAA ECHCG Obs: in-water application
Experimental: as §1, §2

TRFRE = assay: Example V: postemergence herbicidal activity of mixtures in forage crops, TRFRE; format: in vivo, Trifolium repens (white clover); conditions: alone, foliar, approximately 21 days
Experimental: as §3, §4

SINAR = assay: Example V: postemergence herbicidal activity of mixtures in forage crops, SINAR; format: in vivo, Sinapis arvensis (wild mustard); conditions: alone, foliar, approximately 21 days
Experimental: as §3, §4

CENMA = assay: Example V: postemergence herbicidal activity of mixtures in forage crops, CENMA; format: in vivo, Centaurea maculosa (spotted knapweed); conditions: alone, foliar, approximately 21 days
Experimental: as §3, §4

LEFCH [2] = assay: Example II: in-water applied herbicidal mixtures, transplanted paddy rice, LEFCH; format: in vivo, Leptochloa chinensis (Chinese sprangletop)
Experimental: as §1, §2

ECHCG [3] = assay: Example I: postemergence foliar-applied herbicidal mixtures, direct seeded rice, ECHCG; conditions: 16 gae/ha
Experimental: (§7) The soil matrix was contained in plastic pots with a volume of 1 quart and a surface area of 83.6 square centimeters (cm^2). […] The plants were grown for 8-22 days in a greenhouse with an approximate 14 h photoperiod which was maintained at about 29° C. during the day and 26° C. during the night. Nutrients (Peters Excel® 15-5-15 5-Ca 2-Mg and iron chelate) were applied in the irrigation solution as needed and water was added on a regular basis. Supplemental lighting was provided with overhead metal halide 1000-Watt lamps as necessary. The plants were employed for testing when they reached the first through fourth true leaf stage.
(§8) Treatments consisted of the acid or esters of 4-amino-3-chloro-5-fluoro-6-(4-chloro-2-fluoro-3-methoxy-phenyl)pyridine-2-carboxylic acid (Compound A), each formulated as an SC (suspension concentrate), and various herbicidal components alone and in combination. Forms of compound A were applied on an acid equivalent basis.
(§9) For treatments comprised of formulated compounds, measured amounts of compounds were placed individually in 25 mL glass vials and diluted in a volume of 1.25% (v/v) Agri-Dex® crop oil concentrated to obtain 12× stock solutions. […] Application solutions were prepared by adding an appropriate amount of each stock solution (e.g., 1 mL) and diluted to the appropriate final concentrations with the addition of 10 mL of an aqueous mixture of 1.25% (v/v) crop oil concentrate so that the final spray solutions contained 1.25+/−0.05% (v/v) crop oil concentrate.
(§10) All stock solutions and applications solutions were visually inspected for compound compatibility prior to application. Spray solutions were applied to the plant material with an overhead Mandel track sprayer equipped with a 8002E nozzles calibrated to deliver 187 L/ha over an application area of 0.503 m^2 at a spray height of 18 to 20 inches (46 to 50 cm) above average plant canopy height. Control plants were sprayed in the same manner with the solvent blank.
(§11) The treated plants and control plants were placed in a greenhouse as described above and watered by sub-irrigation to prevent wash-off of the test compounds. After approximately 3 weeks, the condition of the test plants as compared with that of the untreated plants was determined visually and scored on a scale of 0 to 100 percent where 0 corresponds to no injury or growth inhibition and 100 corresponds to complete kill.
(§12) Colby's equation was used to determine the herbicidal effects expected from the mixtures (Colby, S. R. 1967. Calculation of the synergistic and antagonistic response of herbicide combinations. Weeds 15:20-22).
(§13) The following equation was used to calculate the expected activity of mixtures containing two active ingredients, A and B: Expected=A+B−(A×B/100)
(§14) A=observed efficacy of active ingredient A at the same concentration as used in the mixture.
(§15) B=observed efficacy of active ingredient B at the same concentration as used in the mixture.

VIOTR = assay: Example IV: postemergence foliar-applied herbicidal mixtures, cereal crops, VIOTR; format: in vivo, Viola tricolor (wild pansy); conditions: 140 gai/ha
Experimental: (§5) Seeds of the desired test plant species were planted in Sun Gro MetroMix 306 planting mixture, which typically has a pH of 6.0 to 6.8 and an organic matter content of about 30 percent, in plastic pots with a surface area of 103.2 square centimeters (cm^2). […] The plants were grown for 7-36 days in a greenhouse with an approximate 14 hour photoperiod which was maintained at about 18° C. during the day and 17° C. during the night.
(§6) Spray solutions of the second cereal herbicide and experimental compound mixtures were prepared by adding the stock solutions to the appropriate amount of dilution solution to form 12 mL spray solution with active ingredients in two- and three-way combinations.

BRSNN = assay: Example IV: postemergence foliar-applied herbicidal mixtures, cereal crops, BRSNN; format: in vivo, Brassica napus (volunteer canola); conditions: for BRSNN Ob (observed value): alone, foliar, 20-22 days
Experimental: as §5, §6

IPOHE = assay: Example I: postemergence foliar-applied herbicidal mixtures, direct seeded rice, IPOHE; format: in vivo, Ipomoea hederacea (ivyleaf morningglory)
Experimental: as §7, §8, §9, §10, §11, §12, §13, §14, §15

CYPIR = assay: Example I: postemergence foliar-applied herbicidal mixtures, direct seeded rice, CYPIR; format: in vivo, Cyperus iria (rice flatsedge)
Experimental: as §7, §8, §9, §10, §11, §12, §13, §14, §15

LEFCH [4] = assay: Example I: postemergence foliar-applied herbicidal mixtures, direct seeded rice, LEFCH; format: in vivo, Leptochloa chinensis (Chinese sprangletop)
Experimental: as §7, §8, §9, §10, §11, §12, §13, §14, §15

POLCO = assay: Example IV: postemergence foliar-applied herbicidal mixtures, cereal crops, POLCO; format: in vivo, Polygonum convolvulus (wild buckwheat); conditions: alone, 140 gai/ha, foliar, 20-22 days
Experimental: as §5, §6

SCPJU = assay: Example II: in-water applied herbicidal mixtures, transplanted paddy rice, SCPJU; format: in vivo, Schoenoplectus juncoides (Japanese bulrush); conditions: 25 DAA
Experimental: as §1, §2

[5] = 240 gae/ha, in-water application
[6] = 280 gai/ha, in-water application

O=C(O)COc1ccc(Cl)cc1Cl [2,4-D Choline Salt, 2-hydroxy-N,N,N-trimethylethanaminium 2-(2,4-dichlorophenoxy)acetate, reference compound]
Visual Weed Control (%) - 20 DAA CYPRO Obs (CYPRO; 240 gae/ha): 30% | Visual Weed Control (%) - 20 DAA CYPRO Obs (CYPRO; 480 gae/ha): 30% | Visual Weed Control (%) - 20 DAA SCPMA Obs (SCPMA; [5]): 0% | CASOB Obs (observed value) (CASOB): 3% | Visual Weed Control (%) - 20 DAA ECHOR Obs (ECHOR; [5]): 0% | Visual Weed Control (%) - 20 DAA ECHOR Obs (ECHOR; 480 gae/ha, in-water application): 20%

CCCCC(CC)COC(=O)COc1ccc(Cl)cc1Cl (stereo not drawn) [2,4-D EHE, 2-ethylhexyl 2-(2,4-dichlorophenoxy)acetate, reference compound]
Visual Weed Control (%) - 22 DAA CYPRO Obs (CYPRO; 140 gae/ha): 0% | Visual Weed Control (%) - 22 DAA CYPRO Obs (CYPRO; 280 gae/ha): 0% | Visual Weed Control (%) - 22 DAA ECHCG Obs (ECHCG [1]; 140 gae/ha): 0% | Visual Weed Control (%) - 22 DAA ECHCG Obs (ECHCG [1]; 280 gae/ha): 0% | Visual Weed Control (%) - 22 DAA ECHOR Obs (ECHOR; 140 gae/ha, in-water application): 0% | Visual Weed Control (%) - 22 DAA ECHOR Obs (ECHOR; 280 gae/ha, in-water application): 0%

Nc1nc(C2CC2)nc(C(=O)O)c1Cl [Aminocyclopyrachlor, 6-amino-5-chloro-2-cyclopropyl-4-pyrimidinecarboxylic acid, reference compound]
TRFRE Obs (observed value) (TRFRE; 8.75 gae/ha): 45% | TRFRE Obs (observed value) (TRFRE; 17.5 gae/ha): 55% | SINAR Obs (observed value) (SINAR; 8.75 gae/ha): 25% | SINAR Obs (observed value) (SINAR; 17.5 gae/ha): 45% | CENMA Obs (observed value) (CENMA; 8.75 gae/ha): 55% | CENMA Obs (observed value) (CENMA; 17.5 gae/ha): 60%

CCCCOC(=O)c1nc(-c2ccc(Cl)c(OC)c2F)c(F)c(N)c1Cl [Compound A n-Butyl Ester]
Visual Weed Control (%) Obs (LEFCH [2]; 19 DAA, 35 gae/ha): 43% | Visual Weed Control (%) Obs (SCPMA; 35 gae/ha): 0% | Visual Weed Control (%) Obs (SCPMA; 70 gae/ha): 0% | Visual Weed Control (%) - 19 DAA ECHCG Obs (ECHCG [3]): 65% | Visual Weed Control (%) Obs (ECHOR; 19 DAA, 35 gae/ha): 80%

C[C@@H](Oc1ccc(Cl)cc1Cl)C(=O)O [Dichlorprop-P, (2R)-2-(2,4-dichlorophenoxy)propanoic acid]
Weed Control Ob (VIOTR; after 20-22 days): 27% | Weed Control Ob (BRSNN; after 20-22 days, 140 gai/ha): 57%

COC(=O)c1nc(-c2ccc(Cl)c(OC)c2F)cc(N)c1Cl [Halauxifen-Methyl Ester, methyl 4-amino-3-chloro-6-(4-chloro-2-fluoro-3-methoxyphenyl)picolinate, reference compound]
Visual Weed Control (%) - 20 DAA IPOHE Obs (IPOHE; 2.19 gae/ha): 0% | Visual Weed Control (%) - 20 DAA IPOHE Obs (IPOHE; 4.38 gae/ha): 0% | Visual Weed Control (%) - 20 DAA CYPIR Obs (CYPIR; 2.19 gae/ha): 25% | Visual Weed Control (%) - 20 DAA CYPIR Obs (CYPIR; 4.38 gae/ha): 70% | Visual Weed Control (%) Obs (CYPRO; 4.38 gae/ha): 70% | Visual Weed Control (%) Obs (CYPRO; 8.75 gae/ha): 50% | Visual Weed Control (%) - 20 DAA LEFCH Obs (LEFCH [4]; 2.19 gae/ha): 0% | Visual Weed Control (%) - 20 DAA LEFCH Obs (LEFCH [4]; 4.38 gae/ha): 10% | Visual Weed Control (%) Obs (ECHCG [1]; 20 DAA, 4.38 gae/ha): 50% | Visual Weed Control (%) Obs (ECHCG [1]; 20 DAA, 8.75 gae/ha): 60% | pest or weed control at 4.38 g/ha (ECHOR; Echinochloa oryzoides, 480 h, 20 DAA, 4.38 gae/ha, read-out: Visual Weed Control (%) Obs): 25% | pest or weed control at 8.75 g/ha (ECHOR; Echinochloa oryzoides, 480 h, 20 DAA, 8.75 gae/ha, read-out: Visual Weed Control (%) Obs): 35%

CCCCC(CC)COC(=O)COc1ccc(Cl)cc1C (stereo not drawn) [MCPA EHE, 2-ethylhexyl 2-(4-chloro-2-methylphenoxy)acetate, reference compound]
Visual Weed Control (%) Obs (LEFCH [2]; 19 DAA, 280 gai/ha): 0% | Visual Weed Control (%) - 19 DAA LEFCH Obs (LEFCH [2]; [6]): 0% | Visual Weed Control (%) - 19 DAA ECHOR Obs (ECHOR; [6]): 30%

Cc1cc(Cl)ccc1OCC(=O)O [MCPA, 2-(4-chloro-2-methylphenoxy)acetic acid]
VIOTR Ob (observed value) (VIOTR; alone, foliar, 20-22 days): 40% | POLCO Ob (observed value) (POLCO): 0% | BRSNN Ob (observed value) (BRSNN; 140 gai/ha): 70%

Cc1cc(Cl)ccc1O[C@H](C)C(=O)O [Mecoprop, (2R)-2-(4-chloro-2-methylphenoxy)propanoic acid]
BRSNN Ob (observed value) (BRSNN; 200 gai/ha): 70%

Nc1c(Cl)c(Cl)nc(C(=O)[O-])c1Cl.[K+] [Picloram K^+ Salt]
SINAR Obs (observed value) (SINAR; 35 gae/ha): 30% | SINAR Obs (observed value) (SINAR; 70 gae/ha): 70% | CENMA Obs (observed value) (CENMA; 35 gae/ha): 20% | CENMA Obs (observed value) (CENMA; 70 gae/ha): 50%

O=C(O)COc1nc(Cl)c(Cl)cc1Cl [Triclopyr TEA Salt, 2-[(3,5,6-trichloro-2-pyridinyl)oxy]acetic acid compound with N,N-diethylethanamine, reference compound]
Visual Weed Control (%) Obs (LEFCH [2]; 25 DAA, 70 gae/ha): 0% | Visual Weed Control (%) Obs (LEFCH [2]; 25 DAA, 140 gae/ha): 0% | Visual Weed Control (%) Obs (SCPJU; 70 gae/ha): 20% | Visual Weed Control (%) Obs (SCPJU; 140 gae/ha): 30% | Visual Weed Control (%) Obs (ECHCG [1]; 25 DAA, 70 gae/ha): 0% | Visual Weed Control (%) Obs (ECHCG [1]; 25 DAA, 140 gae/ha): 0% | pest or weed control at 280 g/ha (ECHOR; Echinochloa oryzoides, 456 h, 19 DAA, 280 gae/ha, read-out: Visual Weed Control (%) Obs): 35% | pest or weed control at 70 g/ha (ECHOR; Echinochloa oryzoides, 600 h, 25 DAA, 70 gae/ha, read-out: Visual Weed Control (%) Obs): 0% | pest or weed control at 140 g/ha (ECHOR; Echinochloa oryzoides, 600 h, 25 DAA, 140 gae/ha, read-out: Visual Weed Control (%) Obs): 0%
